One experiment addresses T1, hT1R1 E301A (Homo sapiens, UniProt Q7RTX1, E301A).
T1 construct: expressed in transfected cells; host or cells: HEK293, transient transfection
T1 sequence (Q7RTX1 21-841 E301A): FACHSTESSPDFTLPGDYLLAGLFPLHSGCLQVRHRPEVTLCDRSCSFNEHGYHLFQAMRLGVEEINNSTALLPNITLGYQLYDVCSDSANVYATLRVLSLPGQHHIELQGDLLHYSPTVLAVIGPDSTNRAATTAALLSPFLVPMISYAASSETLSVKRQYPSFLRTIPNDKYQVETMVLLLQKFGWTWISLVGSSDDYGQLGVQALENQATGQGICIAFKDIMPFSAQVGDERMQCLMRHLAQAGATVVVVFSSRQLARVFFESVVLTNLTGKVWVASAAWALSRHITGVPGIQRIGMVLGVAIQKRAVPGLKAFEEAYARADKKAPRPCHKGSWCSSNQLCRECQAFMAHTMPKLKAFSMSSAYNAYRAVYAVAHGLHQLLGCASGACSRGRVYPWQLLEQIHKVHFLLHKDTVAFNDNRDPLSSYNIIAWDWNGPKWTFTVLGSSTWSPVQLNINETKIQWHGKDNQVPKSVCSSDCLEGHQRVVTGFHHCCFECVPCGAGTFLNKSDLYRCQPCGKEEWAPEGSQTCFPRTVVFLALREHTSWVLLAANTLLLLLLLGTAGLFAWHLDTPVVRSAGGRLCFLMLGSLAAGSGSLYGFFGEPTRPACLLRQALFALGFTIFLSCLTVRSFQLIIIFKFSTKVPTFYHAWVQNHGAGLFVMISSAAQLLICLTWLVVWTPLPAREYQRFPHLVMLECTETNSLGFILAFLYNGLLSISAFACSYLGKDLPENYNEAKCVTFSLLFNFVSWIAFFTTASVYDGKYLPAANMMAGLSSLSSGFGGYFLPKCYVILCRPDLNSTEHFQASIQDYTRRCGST
T1 sequence (Q923K1 21-858 partner): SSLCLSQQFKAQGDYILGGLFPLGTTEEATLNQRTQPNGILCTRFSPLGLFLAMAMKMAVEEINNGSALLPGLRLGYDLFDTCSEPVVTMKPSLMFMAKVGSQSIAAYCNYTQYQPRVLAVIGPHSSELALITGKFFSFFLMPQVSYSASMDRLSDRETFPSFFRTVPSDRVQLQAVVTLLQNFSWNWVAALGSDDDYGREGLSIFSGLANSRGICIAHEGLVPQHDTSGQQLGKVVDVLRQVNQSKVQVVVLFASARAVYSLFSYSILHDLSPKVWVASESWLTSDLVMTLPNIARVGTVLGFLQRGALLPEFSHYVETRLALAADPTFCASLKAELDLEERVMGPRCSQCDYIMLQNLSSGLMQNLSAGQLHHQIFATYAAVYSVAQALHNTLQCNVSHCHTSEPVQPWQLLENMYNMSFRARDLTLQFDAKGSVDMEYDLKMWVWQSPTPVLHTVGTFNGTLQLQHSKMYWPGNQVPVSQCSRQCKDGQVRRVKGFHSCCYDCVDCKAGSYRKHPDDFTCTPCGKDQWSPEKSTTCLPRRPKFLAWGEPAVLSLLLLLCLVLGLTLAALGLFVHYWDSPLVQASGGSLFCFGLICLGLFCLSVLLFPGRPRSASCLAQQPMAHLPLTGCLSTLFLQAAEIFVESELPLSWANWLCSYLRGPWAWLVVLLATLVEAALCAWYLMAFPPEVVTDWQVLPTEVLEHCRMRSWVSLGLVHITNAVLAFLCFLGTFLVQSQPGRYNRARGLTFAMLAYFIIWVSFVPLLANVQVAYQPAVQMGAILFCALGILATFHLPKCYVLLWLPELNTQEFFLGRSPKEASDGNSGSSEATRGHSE
Description: Mutagenesis study, hT1R1 mutant E301A. Particulars: E301 mutant, FIG. 11. It is filed as cell-based. From the text:
(§1) In order to further define the interaction sites of umami stimuli, we performed site-directed mutagenesis on human T1R1 VFT. The mutagenesis was done using the routine PCR-based method. […] were transiently transfected into HEK293 cell together with the rat T1R3 wild type cDNA, and the transfected cells were characterized using an automated FLIPR machine or a calcium imaging system as described in our previous patent applications.

The next experiment has as its target T2, hT1R1 T149S (Homo sapiens, UniProt Q7RTX1, T149S).
T2 construct: expressed in transfected cells; host or cells: HEK293, transient transfection
T2 sequence (Q7RTX1 21-841 T149S): T1 sequence (Q7RTX1 21-841 E301A) with T129S, A281E
T2 sequence (Q923K1 21-858 partner): T1 sequence (Q923K1 21-858 partner)
Description: Mutagenesis study, hT1R1 mutant T149S. It is filed as cell-based. Particulars: 0.25 mM of L-Glu, FIG. 12.
Source text: as §1

Changes are numbered by the printed parent chain.

On to `N[C@@H](CCC(=O)O)C(=O)O` [L-Glu, L-glutamate], for which the “activity against L-Glu” value on hT1R1 E301A is “significant reduced activity”. On hT1R1 T149S, the “activity against L-Glu compared to the wild type” value is “increased activity”.

Source of the values: US20080306076A1, “MODULATION OF CHEMOSENSORY RECEPTORS AND LIGANDS ASSOCIATED THEREWITH” (SENOMYX, INC., priority 2007, published 2008).
